# Residues, ends and D or L forms follow the SMILES beside them. *: point of attachment. Cbz = O=C(OCc1ccccc1)*; CH2F = FC*
# Key:
# commissural neurons = assay: Dorsal spinal cord (commissural explant) survival assay; type: cell-based, rat
# Protocol: To examine functional roles of DR6 in axonal degeneration and programmed cell death of commissural neurons, an RNAi-based dorsal spinal cord survival assay (Kennedy et al., Cell, 78:425-435 (1994); Wang et al., supra, 1999) was conducted (see FIG. 3). E13 rat or E11.5 mouse embryos were placed in L15 medium (Gibco) and siRNAs (IDT) together with green fluorescent protein (“GFP”)-encoding plasmids were injected into the neural tubes. The siRNAs and plasmids were then delivered to dorsal progenitor cells by electroporation. Dorsal spinal cord explants were dissected out, embedded into a 3D-collagen gel matrix, and cultured in Opti-MEM/F12 medium (Invitrogen) with recombinant netrin-1 ([…]) and 5% horse serum (Sigma) at 37° C. in a 5% CO2 environment. Within 16 hours in response to chemo-attractant netrin-1, commissural axons grow out of the explant into the collagen matrix gel (Kennedy et al., supra, 1994). Commissural axons are visualized by GFP fluorescence by observation using an inverted microscope. […]
# Control non-targeting, or targeting DR6 siRNA #2, or targeting DR6 siRNA #3 (IDT) together with either wild-type or mis-match DR6 cDNA and GFP-encoding plasmids. […] Within 16 hours in response to chemo-attractant netrin-1 commissural axons grow out of the explant into the collagen matrix gel (Kennedy et al., Cell 78:425-435 (1994). Commissural axons are visualized by GFP fluorescence by observation using inverted microscope. After 48 hours in culture in the absence of trophic factor support derived from the floorplate, commissural neurons undergo programmed cell death and their axons degenerate (Wang et al., Nature, 401:765-769 (1999)) (FIG. 4B). However, the axonal degeneration program can be blocked by introduction of a targeting DR6-specific siRNA #3 (FIG. 4B). […]
# A dorsal spinal cord survival assay (as described in Example 2 above) was conducted using anti-DR6 antibodies. Microscopic observation (using green fluorescence channel for GFP) was employed to visualize commissural axons. […]
# [1] = patients taking stable doses of Donepezil; changes from baseline; cited from earlier work
# sensory neurons = assay: NGF deprivation assay in Campenot Chambers, local sensory axon degeneration (TUJ1 stain); type: cell-based, mouse
# Protocol: Materials and methods used to generate the data shown in this figure are as follows. To examine whether ligand is required for DR6 function in sensory axonal degeneration, a compartmented culture analysis of sensory axon growth and degeneration was carried out as follows. A Campenot nerve cell chamber system was used to isolate neuronal processes (axons) from the cell bodies in different compartments (separate fluid environments), analogous to neuronal cell bodies in one location of the nervous system projecting their axons to a distal target in another location. The assay was carried out as originally described by Campenot (Campenot et al., J. Neurosci. 11(4): 1126-39 (1991)) with the following modifications. Briefly, 35-mm tissue culture dishes were coated with PDL/Laminin and scratched with a pin rake (Tyler Research) to generate tracks, as illustrated for example in FIGS. 1 and 4 of Campenot et al., supra. […]
# To trigger local axonal degeneration, NGF-containing medium from axonal compartments was substituted with neurobasal medium with an NGF blocking antibody (anti-NGF, Genentech, Inc., 20 ug/ml). Zero hours, 6 hours, or 24 to 48 hours following NGF deprivation, sensory neurons were fixed in 4% PFA for 30 minutes at room temperature and processed for immunofluorescence staining with axonal marker TUJ-1 (Covance, 1:500 dilution) to visualize degenerating axons by fluorescence microscopy (FIG. 11B) (as above described in Example 7). […]
# To examine whether ligand is required for DR6 function in axonal degeneration program triggered by NGF withdrawal, 30 μg/ml of hDR6-ECD-Fc immunoadhesin protein (described in Example 3 above) or 30 μg/ml of a control Fc (Genentech, Inc.) was included together with anti-NGF treatment in axonal compartments of Campenot Chambers. Zero to 24 hours after NGF deprivation, axons in Campenot Chambers were fixed with 4% PFA/PBS and visualized by immuno-fluorescence staining with TUJ-1 (1:500, Covance)/secondary antibody conjugated to a fluorescence group Alexa 488 (Molecular Probes, BD) (FIG. 11B). […]
# [2] = tested on: DR6-AP binding sites on BAX null sensory axons; assay: In situ DR6-AP sensory axon binding assay after NGF withdrawal; type: cell-based, mouse; settings: OM99-2 1 uM; BAX null sensory axons E12.5
# Protocol: For the in situ DR6-AP sensory axon binding assay, either wild-type or Bax null sensory explants were cultured in Neurobasal medium/B27 (Invitrogen) as outlined in the Examples 7-8 above, with 50 ng/ml NGF (Roche). Two days post-plating, DRG explants were either left untreated or deprived from NGF as described above in Examples 7-8. Bax inhibitory peptide was added where indicated on FIG. 12B (10 uM, Bax-V5, Tocris). Twelve hours post-NGF deprivation, DRG explants were washed twice with the binding buffer (HBSS, Gibco Cat. No. 14175-095, with 0.2% BSA, 0.1% NaN3, 5 mM CaCl2, 1 mM MgCl2, 20 mM HEPES, pH=7.0). AP binding assay was then carried out by making a 1:1 mixture of DR6-AP conditioned medium and the binding buffer (or control AP conditioned medium and the binding buffer), which was applied directly to DRG explants in 8-well culture slides (Becton, Dickinson and Company) and incubated for 90 minutes at room temperature.
# Following the incubation, unbound DR6-AP proteins were washed away by rinsing DRG explants five times with the binding buffer. DRG explants were then fixed with 3.7% formaldehyde diluted in PBS, for 12 minutes at room temperature. The remaining formaldehyde was removed by rinsing DRG explants 3 times with HBS buffer (20 mM HEPES pH=7.0, 150 mM NaCl). Endogenous AP activity was blocked by heat inactivation at 65° C. in HBS buffer for 30 minutes. […]
molecule,measurement,setting,value
5′-CAAUAGGUCAGGAAGAUGGCU-3′ [DR6-specific siRNA #3],axonal degeneration of commissural neurons,"commissural neurons; DR6 siRNA electroporated with GFP plasmid, 48 hours in culture without floorplate trophic support",blocked
CC12CC3CC(C)(C1)CC(N)(C3)C2 [Memantine],"outcome measures SIB, ADCS-ADL19, CIBIC-Plus, NPI, BGP vs placebo",[1],exhibiting a benefit over placebo
CC[C@H](C)[C@H](NC(=O)OCc1ccccc1)C(=O)N[C@@H](CCC(=O)OC)C(=O)N[C@H](C(=O)N[C@@H](CC(=O)OC)C(=O)CF)[C@@H](C)O [Z-IETD-FMK] (Cbz-IE(OMe)TD(OMe)-CH2F),sensory axonal degeneration after anti-NGF,"sensory neurons; neurons cultured 5 days, then 24 hours, SP 600125 1 uM, Z-IETD-FMK 10 uM, Z-DEVD-FMK 10 uM",delayed
(L)-HIV-TAT48-57-PP-JBD20 [L-JNK-I],axonal degeneration of commissural neurons,commissural neurons; peptide JNK inhibitor at 1 μM,partially blocked axonal degeneration
OM99-2,sensory axonal degeneration in absence of NGF,"sensory neurons; BACE inhibitor 1 uM, FIG. 15C",blocked
same,disappearance of DR6-AP binding sites from sensory axons following NGF withdrawal,[2],can block the disappearance of DR6-AP binding sites
"hDR6-ECD-Fc: human DR6 extracellular domain sequence fused with Fc, SEQ ID NO: 4",commissural axon degeneration,"commissural neurons; 48 hours, 30 μg/ml or 10 μg/ml hDR6-ECD-Fc",delayed
same,sensory axonal degeneration induced by NGF withdrawal,"sensory neurons; 30 μg/ml in axonal compartment with anti-NGF, 0, 6 and 24 hours, vs control Fc",delayed sensory axonal degeneration

# Source: US20110223630A1, “METHOD FOR SCREENING FOR COMPOUNDS THAT INHIBIT NEURODEGENERATION” (priority 2008, published 2011)
